Reference: patent publication US6429227B1, “Hydroxyeicosatetraenoate salts, compositions and methods of use in treating dry eye disorders” (Alcon Universal Ltd., priority 1999, dated 2002)
Values belong to the molecule of their own block, whether it stands above or below them.

Assays:
Type in all cases: physicochemical
[1] = Stability of neat 15(S)-HETE free acid vs sodium salt, four days under ambient air, HPLC (Example 6)
Experimental: 15(S)-HETE free acid and 15(S)-HETE-sodium salt were stored under ambient air for four days and exposed to either a temperature of 40° C. in total darkness, or ambient temperature and 300 foot-candles of light (approximately Standard Fluorescent Room Light). Following the four day exposure, aliquots of the samples were analyzed by HPLC for percent remaining HETE and results are reported in Table 1: […]

[2] = Stability of samples dried from ethanolic stock in amber glass vials at room temperature under ambient atmosphere, HPLC (Example 7); details: for % Remaining: dried film
Description: Ethanolic stock solutions of 15(S)-HETE free acid and 15(S)-HETE free acid with an approximately equimolar amount of sodium hydroxide (to form the sodium salt in situ) were aliquoted to amber glass vials and dried under a stream of helium. The vials were stored at room temperature under ambient atmosphere. At various times, two vials of each were reconstituted with an aliquot of 50/50 acetonitrile/water and assayed by HPLC for 15(S)-HETE. The results are shown in Table 2 and illustrated in FIG. 1: […]

[3] = Storage stability of 15(S)-HETE-sodium salt as neat solid or as solution in absolute ethanol, HPLC (Example 8)
Experimental: 15(S)-HETE-sodium salt as the neat solid under argon or as solutions in absolute ethanol under ambient atmosphere were stored in amber glass vials in a −20° C. freezer or at room temperature. At various times, the samples were analyzed by HPLC for percent of initial 15(S)-HETE remaining.

% of Initial Amount Remaining ([1]; 40° C., dark): 0%
% of Initial Amount Remaining ([1]; ambient temp., 300 F-C light): 2%
% Remaining ([2]; 0 hours): 100%
% Remaining ([2]; 5 hours): 4%
% Remaining ([2]; 24 hours): 0%
% Remaining ([2]; 55 hours): 0%
% Remaining ([2]; 72 hours): 0%
Compound: CCCCC[C@H](O)/C=C/C=C\C/C=C\C/C=C\CCCC(=O)O [15(S)-HETE-free acid, 15(S)-HETE free acid, reference compound]

% of Initial ([3]; 1 mg/mL in absolute ethanol, ambient atmosphere, room temp., 2.0 weeks): 101%
% of Initial ([3]; 1 mg/mL in absolute ethanol, ambient atmosphere, room temp., 4.4 weeks): 101%
% of Initial ([3]; 1 mg/mL in absolute ethanol, ambient atmosphere, room temp., 6.0 weeks): 101%
% of Initial ([3]; 1 mg/mL in absolute ethanol, ambient atmosphere, room temp., 8.4 weeks): 101%
% of Initial ([3]; 1 mg/mL in absolute ethanol, ambient atmosphere, −20° C. freezer, 2.0 weeks): 102%
% of Initial ([3]; 1 mg/mL in absolute ethanol, ambient atmosphere, −20° C. freezer, 4.4 weeks): 102%
% of Initial ([3]; 1 mg/mL in absolute ethanol, ambient atmosphere, −20° C. freezer, 6.0 weeks): 101%
% of Initial ([3]; 1 mg/mL in absolute ethanol, ambient atmosphere, −20° C. freezer, 8.4 weeks): 101%
% of Initial ([3]; 10 mg/mL in absolute ethanol, ambient atmosphere, room temp., 2.0 weeks): 101%
% of Initial ([3]; 10 mg/mL in absolute ethanol, ambient atmosphere, room temp., 4.4 weeks): 101%
% of Initial ([3]; 10 mg/mL in absolute ethanol, ambient atmosphere, room temp., 6.0 weeks): 101%
% of Initial ([3]; 10 mg/mL in absolute ethanol, ambient atmosphere, room temp., 8.4 weeks): 100%
% of Initial ([3]; 10 mg/mL in absolute ethanol, ambient atmosphere, −20° C. freezer, 2.0 weeks): 101%
% of Initial ([3]; 10 mg/mL in absolute ethanol, ambient atmosphere, −20° C. freezer, 4.4 weeks): 102%
% of Initial ([3]; 10 mg/mL in absolute ethanol, ambient atmosphere, −20° C. freezer, 6.0 weeks): 101%
% of Initial ([3]; 10 mg/mL in absolute ethanol, ambient atmosphere, −20° C. freezer, 8.4 weeks): 101%
% of Initial ([3]; solid under argon, room temp., 2.0 weeks): 72%
% of Initial ([3]; solid under argon, room temp., 4.4 weeks): 61%
% of Initial ([3]; solid under argon, room temp., 6.0 weeks): 42%
% of Initial ([3]; solid under argon, room temp., 8.4 weeks): 28%
% of Initial ([3]; solid under argon, −20° C. freezer, 2.0 weeks): 99%
% of Initial ([3]; solid under argon, −20° C. freezer, 4.4 weeks): 97%
% of Initial ([3]; solid under argon, −20° C. freezer, 6.0 weeks): 95%
% of Initial ([3]; solid under argon, −20° C. freezer, 8.4 weeks): 92%
% of Initial Amount Remaining ([1]; 40° C., dark): 86%
% of Initial Amount Remaining ([1]; ambient temp., 300 F-C light): 58%
% Remaining ([2]; 0 hours): 100%
% Remaining ([2]; 5 hours): 94%
% Remaining ([2]; 24 hours): 79%
% Remaining ([2]; 55 hours): 66%
% Remaining ([2]; 72 hours): 65%
Compound: CCCCC[C@H](O)/C=C/C=C\C/C=C\C/C=C\CCCC(=O)[O-].[Na+] [15(S)-HETE-sodium salt, 5,8,11,13-Eicosatetraenoic acid, 15-hydroxy-[15S-(5Z,8Z,11Z,13E)]-sodium salt]
stability relative to the corresponding free acid (in words) ([2]; up to 72 hours): more stable than the corresponding free acid
